Data as given in patent US10202362B2, “Inhibitors of leukotriene A4 hydrolase” (Celtaxsys, Inc., priority 2016, dated 2019).

Assays:
[1] = biological target: LTA4 hydrolase peptidase activity (Homo sapiens (Human), UniProt P09960); assay: Peptidase assay (hydrolysis of L-alanine-p-nitroanilide); assay type: biochemical; conditions: L-alanine-p-nitroanilide substrate
Procedure: Inhibition of peptidase activity was measured for the compounds of the invention by using methods similar to those described in Kull, F. et al., The Journal of Biological Chemistry 1999, 274 (49): 34683-34690.
In brief, the enzyme (29 nM) was incubated with L-alanine-p-nitroanilide (1 mM) in 50 mM HEPES (pH 7.5), 100 mM KCL, 1% DMSO in the absence or presence of a compound of the invention for 1 hour at ambient temperature. Reaction was terminated by addition of acetic acid (1%). Formation of colored nitro-aniline was measured by the increase in absorbance at 405 nm in a Victor 2 plate reader (Wallac). Spontaneous hydrolysis of the substrate was corrected for by subtracting the absorbance of control incubations without enzyme.

[2] = tested on: LTB4 production in human whole blood; assay: Whole blood assay (LTB4 release upon calcium ionophore, ELISA), human blood; assay type: cell-based; conditions: production of LTB4 in whole blood
Procedure: Compounds of the invention were tested for their ability as inhibitors of LTA4 hydrolase in a whole blood assay using human, mouse, rat or dog whole blood in a manner similar to that described in Penning, T. D. et al., J. Med. Chem. (2000), 43(4): 721-735. In this assay, compounds were tested for their ability to inhibit LTB4 release upon stimulation with calcium ionophore. The LTB4 levels in supernatants were measured by ELISA.

[3] = biological target: recombinant human LTA4 hydrolase (Homo sapiens (Human), UniProt P09960); assay: LTA4 hydrolase homogeneous time resolved fluorescence (HTRF) assay; assay type: biochemical; conditions: inhibition of hydrolysis of LTA4 to LTB4
Procedure: Compounds of the invention were tested in the LTA4 hydrolase homogeneous time resolved fluorescence (HTRF) assay to determine their ability to inhibit the hydrolysis of LTA4 to LTB4. The assay analyzes the amount of LTB4 produced.
LTA4 HTRF assay is a two-step assay involving enzymatic conversion of LTA4 to LTB4, and subsequent quantification of LTB4, product with HTRF assay.
The enzymatic conversion of LTA4 to LTB4 was performed in 384-well plates at ambient temperature in a reaction mixture containing 50 mM HEPES (pH 7.5), 0.5% BSA (fatty acid free), 18 nM recombinant human LTA4 hydrolase, 150 nM LTA4, 1% DMSO in the absence or presence of a compound of the invention. […]
LTB4 formed was quantified with the HTRF assay in which free LTB4 competes with LTB4-XL665 conjugate (acceptor) for anti-LTB4 monoclonal antibody labeled with Europium cryptate (donor), thereby inhibiting the fluorescence energy transfer.
The LTB4 HTRF 384-well assay was carried out by incubating LTB4 samples or standards with LTB4-XL665 conjugate (7.5 ng/well) and anti-LTB4 monoclonal antibody-Europium cryptate conjugate (0.5 ng/well) in 50 mM phosphate, 0.4 M KF and 0.1% casein, buffer (pH 7.0) for two hours at ambient temperature. Plates were read in a RubyStar plate reader (BmG Labtechnologies Inc., NC) simultaneously at 620 nm and 665 nm to obtain signal ratios of 665 nm/620 nm. […]

Chain of LTA4 hydrolase peptidase activity (P09960 whole entry): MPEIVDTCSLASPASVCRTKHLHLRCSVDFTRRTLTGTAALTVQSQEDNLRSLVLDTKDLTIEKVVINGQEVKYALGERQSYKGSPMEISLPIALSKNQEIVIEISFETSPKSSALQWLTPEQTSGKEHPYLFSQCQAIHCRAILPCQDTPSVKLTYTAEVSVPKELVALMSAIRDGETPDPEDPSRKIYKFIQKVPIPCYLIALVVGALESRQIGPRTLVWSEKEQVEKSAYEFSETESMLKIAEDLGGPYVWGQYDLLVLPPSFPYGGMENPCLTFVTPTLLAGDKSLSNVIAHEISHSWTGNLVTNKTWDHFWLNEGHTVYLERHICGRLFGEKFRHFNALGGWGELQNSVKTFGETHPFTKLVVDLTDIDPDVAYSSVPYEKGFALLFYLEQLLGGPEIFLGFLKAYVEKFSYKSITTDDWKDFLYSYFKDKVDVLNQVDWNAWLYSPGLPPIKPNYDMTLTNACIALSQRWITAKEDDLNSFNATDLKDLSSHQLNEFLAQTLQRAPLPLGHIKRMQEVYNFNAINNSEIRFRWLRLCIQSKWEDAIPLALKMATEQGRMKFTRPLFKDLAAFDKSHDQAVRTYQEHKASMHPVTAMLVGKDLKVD
Chain of recombinant human LTA4 hydrolase (P09960 whole entry): as above

IC50 [1] [nM]	IC50 [2] [nM]	IC50 [3] [nM]	Structure (SMILES)
7.1	62	2.1	O=C(O)C1CCN(C(=O)CN2CCC(Nc3ccc(Oc4ccc(-c5ncco5)cc4)cc3)CC2)CC1 [Example 1, 1-(2-(4-((4-(4-(oxazol-2-yl)phenoxy)phenyl)amino)piperidin-1-yl)acetyl)piperidine-4-carboxylic acid]
22	100	1.8	O=C(O)c1ccc(CN2CCCC(CNc3ccc(Oc4ccc(Cl)cc4)cc3)C2)cc1 (stereo not drawn) [Example 3, 4-((3-(((4-(4-chlorophenoxy)phenyl)amino)methyl)piperidin-1-yl)methyl)benzoic acid]
